# Key:
# [1] = Solubility test of couplers in di-n-butyl phthalate / ethyl acetate, visual evaluation of crystal precipitation; assay type: physicochemical; set-up: key: A: no precipitation; B: slight precipitation; C: precipitation in large amount; conditions: 1 g coupler in 1 ml di-n-butyl phthalate and 4 ml ethyl acetate, dissolved at 70° C., left to stand at 20° C.
# Experimental: Solubility tests were conducted by use of the couplers for photography of this invention and Control couplers as indicated in Table 2 below. Each one gram of respective couplers was added to a mixture of 1 ml of di-n-butyl phthalate and 4 ml of ethyl acetate and the resulting mixture was heated at 70° C. for complete dissolution, followed by sealing with a stopper. Each sample was left to stand at 20° C. and precipitation of crystals was evaluated by visual observation. In Table 2, in the evaluation column, A represents no precipitation, B slight precipitation and C precipitation in large amount.
# [2] = Photographic characteristics (sensitivity, maximum density, maximum absorption) of silver halide color photographic material containing coupler; conditions: cyan dye formed
# Experimental: The resultant solution was mixed with 5 ml of an aqueous 10% solution of Alkanol B (aklylnaphthalene sulfonate, produced by Du Pont de Nemours & Co.) and 200 ml of an aqueous 5% gelatin solution and emulsified by means of a colloid mill to prepare respective coupler dispersions. Then, each of these coupler dispersions was added to 500 g of a gelatin-silver chlorobromide emulsion, and the mixture was applied on polyethylene coated paper, followed by drying, to prepare six kinds of light-sensitive silver halide color photographic materials. These samples were subjected to wedge exposure following the conventional procedure and then processed as follows.
# Processing step (30° C.)
# Color developing 3 min. 30 sec.
# Bleach-fixing 1 min. 30 sec.
# Washing with water 2 min.
# In the following, compositions of respective processing solutions are shown.
# [Composition of color developing solution]
# 4-Amino-3-methyl-N--ethyl-N--
# (β-methanesulfonamidoethyl)-aniline sulfate
# Sodium hexamethaphosphate 2.5 g
# Anhydrous sodium sulfite 1.85 g
# Made up to one liter with addition of water, and adjusted to pH 10.30 with sodium hydroxide.
# [Composition of bleach-fixing solution]
# Iron ammonium salt of ethylenediaminetetraacetic
# Diammonium salt of ethylenediaminetetraacetic
# Ammonium thiosulfate 124.5 g
# Sodium metabisulfite 13.3 g
# Anhydrous sodium sulfite 2.7 g
# Made up to one liter with addition of water.
# For samples obtained by the above processing, photographic characteristics were measured respectively. Measurements were conducted by use of PDA-60 Model sensitometer (produced by Konishiroku Photo Industry Co.) The results are shown in Table 3 below.
# The sensitivity values are shown as relative sensitivities to the value of the sample having the highest sensitivity as 100.
Compound,Evaluation of solubility After 6 hours [1],Evaluation of solubility After 12 hours [1],Evaluation of solubility After one hour [1],Maximum absorption [2] [nm]
CC(C)C(Oc1ccc(C(C)(C)C)cc1C(C)(C)C)C(=O)Nc1cc(O)c(NC(=O)c2c(F)c(F)c(F)c(F)c2F)cc1Cl (stereo not drawn) [Exemplary compound (I-3)],A,A,A,–
CCC(Oc1ccc(C(C)(C)CC)cc1C(C)(C)CC)C(=O)Nc1cc(Cl)c(C)c(Cl)c1O (stereo not drawn) [Control coupler (E)],–,–,–,654
CCCCCCCCCCCCC(Oc1ccc(NS(=O)(=O)CCCC)cc1)C(=O)Nc1cc(O)c(NC(=O)c2ccccc2)cc1Cl (stereo not drawn) [Control coupler (F)],–,–,–,641
CCCCS(=O)(=O)Nc1ccc(OC(C(=O)Nc2cc(O)c(NC(=O)c3c(F)c(F)c(F)c(F)c3F)cc2Cl)C(C)C)cc1 (stereo not drawn) [Exemplary compound (I-11)],–,–,–,657
CCCCCCCCCCCCC(Oc1ccc(C(C)(C)CC)cc1C(C)(C)CC)C(=O)Nc1cc(O)c(NC(=O)c2c(F)c(F)c(F)c(F)c2F)cc1Cl (stereo not drawn) [Control coupler (D)],B,C,B,–
CCCCCCCCCCCCC(Oc1ccc(O)c(C(C)(C)C)c1)C(=O)Nc1ccc(NC(=O)c2ccccc2F)c(O)c1 (stereo not drawn) [Control coupler (G)],–,–,–,640
"CCCCCCCCCCCCCCCc1cccc(OC(C(=O)Nc2cc(O)c(NC(=O)c3c(F)c(F)c(F)c(F)c3F)cc2Cl)C(C)C)c1 (stereo not drawn) [Exemplary compound (I-10), 2-(2,3,4,5,6-pentafluoro)benzamido-4-chloro-5-[α-(m-pentadecylphenoxy)-β-methylbutaneamido]phenol]",–,–,–,654
CCCCCCCCC(Oc1ccc(C(C)(C)CC)cc1C(C)(C)CC)C(=O)Nc1cc(O)c(NC(=O)c2c(F)c(F)c(F)c(F)c2F)cc1Cl (stereo not drawn) [Control coupler (C)],C,C,B,–

# Next, values leading:
Evaluation of solubility After 6 hours [1],Evaluation of solubility After 12 hours [1],Evaluation of solubility After one hour [1],Maximum absorption [2] [nm],Compound
C,C,B,–,CCC(Oc1ccc(C(C)(C)CC)cc1C(C)(C)CC)C(=O)Nc1cc(O)c(NC(=O)c2c(F)c(F)c(F)c(F)c2F)cc1Cl (stereo not drawn) [Control coupler (B)]
A,A,A,655,"CCC(C)(C)c1ccc(OC(C(=O)Nc2cc(O)c(NC(=O)c3c(F)c(F)c(F)c(F)c3F)cc2Cl)C(C)C)c(C(C)(C)CC)c1 (stereo not drawn) [Exemplary compound (I-2), 2-(2,3,4,5,6-pentafluoro)benazmido-4-chloro-5-[α-(2,4-di-t-amylphenoxy)-β-methylbutaneamido]phenol]"
A,A,A,–,CCC(C)C(Oc1ccc(C(C)(C)CC)cc1C(C)(C)CC)C(=O)Nc1cc(O)c(NC(=O)c2c(F)c(F)c(F)c(F)c2F)cc1Cl (stereo not drawn) [Exemplary compound (I-4)]
